Source: patent publication US9604933B2, “Pyrazolochalcones as potential anticancer agents” (COUNCIL OF SCIENTIFIC AND INDUSTRIAL RESEARCH, priority 2013, dated 2017)
Read-outs that look alike come from different tables or passages of the source.

Tests used:
[1] = test system: SW-620; assay: NCI SRB cytotoxicity, colon SW-620; assay type: cell-based; conditions: Homo sapiens, 48 h exposure
Procedure: (§1) The pyrazolochalcones (7e, 8e, 10e, 11e, 12e, 13e and 8f) have been tested against fifty nine human tumor cell lines derived from nine cancer types (leukemia, non-small cell lung cancer, colon cancer, CNS cancer, melanoma, ovarian cancer, renal cancer, prostate cancer and breast cancer) as per the NCI protocol. For each compound, dose response curves for individual cell lines have been measured at a minimum of five concentrations at 10 fold dilutions. A protocol of 48 h continuous drug exposure has been used, and a sulforhodamine B (SRB) protein assay has been used to estimate cell viability or growth. The concentration for 50% cell growth inhibition (GI50), 50% cell death (LC50, 50% growth) and total cell growth inhibition (TGI, 0% growth) values were tabulated (Table-1). DMSO was used as control to calculate the values of GI50, LC50 and TGI. The compounds 7e, 8e, 10e, 11e, 12e, 13e and 8f has been evaluated for their in vitro cytotoxicity in […] cell lines from nine human cancer types of leukemia (K-562, SR), non-small cell lung (Hop-62, NCI-H226, NCI-H522), colon (HCT-116, HCT-15, HCC-2998), CNS (SF-539), melanoma (SK-MEL-5, UACC-62, M14), ovarian (IGROV1), renal (A498), prostate (PC3) and breast (BT-549, MDA-MB-435, HS578T) origin. The results are expressed as percent of cell growth determined relative to that of untreated control cells (Table 2).

[2] = test system: Ovarian; assay: NCI SRB cytotoxicity, ovarian panel average; assay type: cell-based, human; conditions: average of cell lines
Procedure: as §1
(§2) Each cancer type represents the average of six to eight different cancer cell lines.

[3] = test system: TK-10; assay: NCI SRB cytotoxicity, renal TK-10; assay type: cell-based; conditions: Homo sapiens, 48 h exposure
Procedure: as §1

[4] = test system: MDA-MB-435; assay: NCI SRB cytotoxicity, melanoma MDA-MB-435; assay type: cell-based; conditions: Homo sapiens, Melanoma panel MDA-MB-435, 48 h exposure
Procedure: as §1

[5] = test system: OVCAR-4; assay: NCI SRB cytotoxicity, ovarian OVCAR-4; assay type: cell-based; conditions: Homo sapiens, 48 h exposure
Procedure: as §1

[6] = test system: MDA-MB-435; assay: NCI SRB cytotoxicity, breast panel MDA-MB-435; assay type: cell-based; conditions: Homo sapiens, 48 h exposure
Procedure: as §1

[7] = test system: CAKI-1; assay: NCI SRB cytotoxicity, renal CAKI-1; assay type: cell-based; conditions: Homo sapiens, 48 h exposure
Procedure: as §1

[8] = test system: HS 578T; assay: NCI SRB cytotoxicity, breast HS 578T; assay type: cell-based; conditions: Homo sapiens, 48 h exposure
Procedure: as §1

[9] = test system: UACC-257; assay: NCI SRB cytotoxicity, melanoma UACC-257; assay type: cell-based; conditions: Homo sapiens, 48 h exposure
Procedure: as §1

[10] = test system: LOX IMVI; assay: NCI SRB cytotoxicity, melanoma LOX IMVI; assay type: cell-based; conditions: Homo sapiens, 48 h exposure
Procedure: as §1

[11] = test system: A498; assay: NCI SRB cytotoxicity, renal A498; assay type: cell-based; conditions: Homo sapiens, 48 h exposure
Procedure: as §1

[12] = test system: UO-31; assay: NCI SRB cytotoxicity, renal UO-31; assay type: cell-based; conditions: Homo sapiens, 48 h exposure
Procedure: as §1

[13] = test system: SK-MEL-28; assay: NCI SRB cytotoxicity, melanoma SK-MEL-28; assay type: cell-based; conditions: Homo sapiens, 48 h exposure
Procedure: as §1

[14] = test system: NCIH322M; assay: NCI SRB cytotoxicity, non-small cell lung NCIH322M; assay type: cell-based; conditions: Homo sapiens, NCI-H322M, 48 h exposure
Procedure: as §1

[15] = test system: 786-0; assay: NCI SRB cytotoxicity, renal 786-0; assay type: cell-based; conditions: Homo sapiens, 48 h exposure
Procedure: as §1

[16] = test system: CCRF-CEM; assay: NCI SRB cytotoxicity, leukemia CCRF-CEM; assay type: cell-based; conditions: Homo sapiens, 48 h exposure
Procedure: as §1

[17] = test system: Prostate; assay: NCI SRB cytotoxicity, prostate panel average; assay type: cell-based, human; conditions: average of cell lines
Procedure: as §1, §2

[18] = test system: A549/ATCC; assay: NCI SRB cytotoxicity, non-small cell lung A549/ATCC; assay type: cell-based; conditions: Homo sapiens, 48 h exposure
Procedure: as §1

[19] = test system: SNB-75; assay: NCI SRB cytotoxicity, CNS SNB-75; assay type: cell-based; conditions: Homo sapiens, 48 h exposure
Procedure: as §1

[20] = test system: Leukemia; assay: NCI SRB cytotoxicity, leukemia panel average; assay type: cell-based, human; conditions: average of cell lines
Procedure: as §1, §2

[21] = test system: HCT-116; assay: NCI SRB cytotoxicity, colon HCT-116; assay type: cell-based; conditions: Homo sapiens, 48 h exposure
Procedure: as §1

[22] = test system: NCI-H460; assay: NCI SRB cytotoxicity, non-small cell lung NCI-H460; assay type: cell-based; conditions: Homo sapiens, 48 h exposure
Procedure: as §1

[23] = test system: SF-268; assay: NCI SRB cytotoxicity, CNS SF-268; assay type: cell-based; conditions: Homo sapiens, 48 h exposure
Procedure: as §1

[24] = test system: Non-small cell lung; assay: NCI SRB cytotoxicity, non-small cell lung panel average; assay type: cell-based, human; conditions: average of cell lines
Procedure: as §1, §2

[25] = test system: RPMI-8226; assay: NCI SRB cytotoxicity, leukemia RPMI-8226; assay type: cell-based; conditions: Homo sapiens, 48 h exposure
Procedure: as §1

[26] = test system: SK-MEL-5; assay: NCI SRB cytotoxicity, melanoma SK-MEL-5; assay type: cell-based; conditions: Homo sapiens, 48 h exposure
Procedure: as §1

[27] = test system: NCI-H23; assay: NCI SRB cytotoxicity, non-small cell lung NCI-H23; assay type: cell-based; conditions: Homo sapiens, 48 h exposure
Procedure: as §1

[28] = test system: RXF 393; assay: NCI SRB cytotoxicity, renal RXF 393; assay type: cell-based; conditions: Homo sapiens, 48 h exposure
Procedure: as §1

[29] = test system: KM12; assay: NCI SRB cytotoxicity, colon KM12; assay type: cell-based; conditions: Homo sapiens, 48 h exposure
Procedure: as §1

[30] = test system: OVCAR-5; assay: NCI SRB cytotoxicity, ovarian OVCAR-5; assay type: cell-based; conditions: Homo sapiens, 48 h exposure
Procedure: as §1

[31] = test system: Breast; assay: NCI SRB cytotoxicity, breast panel average; assay type: cell-based, human; conditions: average of cell lines
Procedure: as §1, §2

[32] = test system: HOP-62; assay: NCI SRB cytotoxicity, non-small cell lung HOP-62; assay type: cell-based; conditions: Homo sapiens, 48 h exposure
Procedure: as §1

[33] = test system: human tumor cell lines; assay: NCI SRB cytotoxicity, all fifty nine human tumor cell lines; assay type: cell-based; design: Log10 TGI mean graph midpoint (MG_MID): unit not given here; conditions: for GI50: Homo sapiens
Procedure: as §1
The mean graph midpoint values of Log10 TGI and Log10 LC50 as well as Log10 GI50 for compounds 7e, 8e, 10e, 11e, 12e, 13e and 8f is listed in Table-3. […] The mean graph mid points of Log10 TGI and Log10, LC50 have shown similar pattern to the log10 GI50 mean graph mid points.

[34] = test system: NCI-H522; assay: NCI SRB cytotoxicity, non-small cell lung NCI-H522; assay type: cell-based; conditions: Homo sapiens, 48 h exposure
Procedure: as §1

[35] = test system: IGROV1; assay: NCI SRB cytotoxicity, ovarian IGROV1; assay type: cell-based; conditions: Homo sapiens, IGROV-1, 48 h exposure
Procedure: as §1

[36] = Homo sapiens, read-out: Log10 GI50 (concentration in mol/L causing 50% growth inhibition) (converted)
[37] = Homo sapiens, read-out: Log10 LC50 (concentration in mol/L causing 50% cell death) (converted)

COc1cc(C(=O)/C=C/c2cc(-c3cc(OC)c(OC)c(OC)c3)n[nH]2)cc(OC)c1OC [10e, (E)-1-(3,4,5-trimethoxyphenyl)-3-(3-(3,4,5-trimethoxyphenyl)-1H-pyrazol-5-yl)prop-2-en-1-one]
GI50 [1]: 1590 nM
GI50 [2, 36]: 2190 nM
CC50 [2, 37]: 14500 nM
Log10 TGI (concentration in mol/L causing total growth inhibition (0% growth)) [2]: −5.23 mol/L
GI50 [3]: 1460 nM
GI50 [4]: 1490 nM
GI50 [5]: 1450 nM
GI50 [6]: 1150 nM
GI50 [7]: 2580 nM
GI50 [8]: 2680 nM
GI50 [9]: 1570 nM
GI50 [10]: 1520 nM
GI50 [11]: 1610 nM
GI50 [12]: 1190 nM
GI50 [13]: 1820 nM
GI50 [14]: 2000 nM
GI50 [15]: 1560 nM
GI50 [16]: 1680 nM
GI50 [17, 36]: 1480 nM
CC50 [17, 37]: 7410 nM
Log10 TGI (concentration in mol/L causing total growth inhibition (0% growth)) [17]: −5.48 mol/L
GI50 [18]: 2720 nM
GI50 [19]: 1540 nM
GI50 [20, 36]: 1200 nM
CC50 [20, 37]: 0.0001 mol/L
Log10 TGI (concentration in mol/L causing total growth inhibition (0% growth)) [20]: −4.80 mol/L
GI50 [21]: 1310 nM
GI50 [22]: 1890 nM
GI50 [23]: 1940 nM
GI50 [24, 36]: 1290 nM
LC50 [24, 37]: 13500 nM
Log10 TGI (concentration in mol/L causing total growth inhibition (0% growth)) [24]: −5.42 mol/L
GI50 [25]: 310 nM
GI50 [26]: 1570 nM
GI50 [27]: 3040 nM
GI50 [28]: 1260 nM
GI50 [29]: 1490 nM
GI50 [30]: 1640 nM
GI50 [31, 36]: 1350 nM
CC50 [31, 37]: 10000 nM
Log10 TGI (concentration in mol/L causing total growth inhibition (0% growth)) [31]: −5.35 mol/L
GI50 [32]: 1460 nM
GI50 ([33]; across fifty nine cell lines in nine cell panels, read-out: GI50 value range): 180 to 29200 nM
GI50 ([33]; against human tumor cell lines, read-out: Log10 GI50 mean graph midpoint (MG_MID) (converted)): 1550 nM
cytotoxicity ([33]; against cancer cell lines, in words): significant cytotoxicity
Log10 TGI mean graph midpoint (MG_MID) ([33]; against human tumor cell lines): −5.36
LC50 ([33]; against human tumor cell lines, read-out: Log10 LC50 mean graph midpoint (MG_MID) (converted)): 11500 nM
GI50 [34]: 520 nM
GI50 [35]: 3140 nM
